What all share (format): cell-based, human
The subject of assay [1] is HCT116 p53^−/− parental cells. The assay can be described thus: MTT cytotoxicity assay, HCT116 p53^−/− parental cells. The conditions noted are these: for IC50: MTT, 72 h. The protocol:
(§1) Tissue culture. HCT116 p53^+/+ and p53^−/− isogenic human colon cancer cells were kindly provided by Professor Bert Vogelstein (John Hopkins University, Baltimore, Md.). Drug-resistant HCT116 sub-lines were developed in the inventors' laboratory by repeated exposure to stepwise increasing concentrations of 5-FU, CPT-11 or oxaliplatin over a period of approximately ten months. Parental and drug-resistant HCT116 cell lines were grown in McCoy's 5A medium supplemented with 10% dialysed foetal calf serum (FCS), 50 μg/ml penicillin-streptomycin, 2 mM L-glutamine and 1 mM sodium pyruvate (all from GIBCO Invitrogen Corporation, Paisley, Scotland) and maintained at 37° C. in a humidified atmosphere containing 5% CO2. 5-FU-resistant p53^+/+ and p53^−/− HCT116 cells were maintained in the presence of 2 μM and 4 μM 5-FU respectively. CPT-11-resistant p53^+/+ and p53^−/− HCT116 cells were maintained in the presence of 1 μM and 3 μM CPT-11 respectively. […] Prior to each experiment, resistant sub-lines were cultured in the absence of drug for 48 hours.
(§2) Cytotoxicity studies. Cells were seeded at 2000 cells per well in 96-well microtiter plates. After 48 hours, cells were treated with a range of concentrations of 5-FU, CPT-11 or oxaliplatin.
(§3) After 72 hours, 25 μl of MTT dye (5 mg/ml) was added to each well and the plates were incubated at 37° C. for 3 hours. Dark-blue formazan crystals formed by live cells were dissolved in 200 μl of DMSO and absorbance in individual wells was determined at 570 nm using an Emax precision microplate reader (Molecular Devices, Sunnyvale, Calif.).
A general note: Tetrazolium assays rely on reduction of a dye to a coloured formazan, in cell work by metabolically active cells.

Assay [2] has as its system HCT116 p53^+/+ parental cells. The assay can be described thus: MTT cytotoxicity assay, HCT116 p53^+/+ parental cells. The conditions noted are these: 72 h. As to the method:
as §1, §2, §3

The subject of assay [3] is p53^+/+ oxaliplatin-resistant HCT116 cells. The assay can be described thus: MTT cytotoxicity assay, p53^+/+ oxaliplatin-resistant HCT116 cells. Conditions: for increase in IC50 (72 hr) compared to parental cells: p53^+/+ oxaliplatin-resistant vs p53^+/+ parental; for IC50: p53^+/+ oxaliplatin-resistant, MTT, 72 h. The protocol:
as §1, §2, §3

Assay [4] deals with p53^−/− oxaliplatin-resistant HCT116 cells. The assay can be described thus: MTT cytotoxicity assay, p53^−/− oxaliplatin-resistant HCT116 cells. Conditions: for increase in IC50 (72 hr) compared to parental cells: p53^−/− oxaliplatin-resistant vs p53^−/− parental; for IC50: p53^−/− oxaliplatin-resistant, MTT, 72 h. The protocol: as §1, §2, §3
Assay [5] relates to p53^+/+ CPT-11-resistant HCT116 cells. The assay can be described thus: MTT cytotoxicity assay, p53^+/+ CPT-11-resistant HCT116 cells. The conditions noted are these: for increase in IC50 (72 hr) compared to parental cells: p53^+/+ CPT-11-resistant vs p53^+/+ parental; for IC50: p53^+/+ CPT-11-resistant, MTT, 72 h.
Assay [6] deals with p53^+/+ 5-FU-resistant HCT116 cells. The assay is described as follows: MTT cytotoxicity assay, p53^+/+ 5-FU-resistant HCT116 cells. Conditions: for IC50: p53^+/+ 5-FU-resistant, MTT, 72 h.
The subject of assay [7] is p53^−/− 5-FU-resistant HCT116 cells. The assay is described as follows: MTT cytotoxicity assay, p53^−/− 5-FU-resistant HCT116 cells. The conditions noted are these: p53^−/− 5-FU-resistant, MTT, 72 h.
Assay [8] has as its system p53^−/− CPT-11-resistant HCT116 cells. The assay is described as follows: MTT cytotoxicity assay, p53^−/− CPT-11-resistant HCT116 cells. Conditions: for increase in IC50 (72 hr) compared to parental cells: p53^−/− CPT-11-resistant vs p53^−/− parental; for IC50: p53^−/− CPT-11-resistant, MTT, 72 h.
The subject of the next assay is p53^+/+ HCT116 cells. The assay is described as follows: PARP cleavage immunoblotting, p53^+/+ HCT116 cells. Conditions: 48 hours, Western blot. For orientation: Immunoblotting shows a protein as a band on a membrane.
The next assay relates to p53^−/− HCT116 cells. The assay can be described thus: PARP cleavage immunoblotting, p53^−/− HCT116 cells. Conditions: 48 hours, Western blot.
Assay [9] concerns p53^+/+ CPT-11-resistant HCT116 cells. The assay can be described thus: Flow cytometry cell cycle/apoptosis, p53^+/+ CPT-11-resistant cells. The conditions noted are these: 72 hours. As to the method:
as §1
(§4) Flow cytometry. Cells were seeded at 5×10^4 cells per well in 6-well plates. After 48 hours, cells were treated with a range of concentrations of 5-FU, CPT-11 or oxaliplatin. Seventy-two hours post-treatment, cells were harvested in 5 ml of 1× PBS/0.5 mM EDTA and pelleted by centrifugation at 1000 rpm/4° C. for 5 minutes. Cell pellets were washed once with 1× PBS/1% FCS, fixed in 70% ethanol and stained with propidium iodide. Analyses were performed on a Beckman Coulter Epics XL flow cytometer (Miami, Fla.).
(In general: Flow cytometry measures light scatter and fluorescence of single cells or particles in a stream.)

In assay [10] the test system is p53^−/− CPT-11-resistant HCT116 cells. The assay is described as follows: Flow cytometry cell cycle/apoptosis, p53^−/− CPT-11-resistant cells.
Assay [11] has as its system p53^−/− HCT116 parental cells. The assay is described as follows: Flow cytometry cell cycle/apoptosis, p53^−/− HCT116 parental cells. Conditions: 72 hours; for drug-induced apoptosis in p53^−/− compared to p53^+/+ parental cells: range of concentrations.
For assay [12], the system named is p53^+/+ HCT116 parental cells. The assay can be described thus: Flow cytometry cell cycle/apoptosis, p53^+/+ HCT116 parental cells. The conditions noted are these: 72 hours.
Assay [13] deals with p53^+/+ 5-FU-resistant HCT116 cells. The assay is described as follows: Flow cytometry cell cycle/apoptosis, p53^+/+ 5-FU-resistant cells. The conditions noted are these: p53^+/+ 5-FU-resistant cell line, data not shown.
In assay [14] the test system is p53^+/+ oxaliplatin-resistant HCT116 cells. The assay can be described thus: Flow cytometry cell cycle/apoptosis, p53^+/+ oxaliplatin-resistant cells. The conditions noted are these: 72 hours. As to the method: as §1, §4
Assay [15] relates to p53^−/− oxaliplatin-resistant HCT116 cells. The assay is described as follows: Flow cytometry cell cycle/apoptosis, p53^−/− oxaliplatin-resistant cells. The conditions noted are these: same concentrations as parental (1 μM, 5 μM). The protocol:
as §1
Flow cytometry. Cells were seeded at 5×10^4 cells per well in 6-well plates. After 48 hours, cells were treated with a range of concentrations of 5-FU, CPT-11 or oxaliplatin. Seventy-two hours post-treatment, cells were harvested in 5 ml of 1× PBS/0.5 mM EDTA and pelleted by centrifugation at 1000 rpm/4° C. for 5 minutes. […]

The mark [16] stands for this setting: HCT116 p53^−/− parental, read-out: IC50(72 h).
Setting [17] is: HCT116 p53^+/+ parental, read-out: IC50(72 h).
[18] abbreviates: parental HCT116 p53^−/− vs p53^+/+.
Where [19] appears, read: Homo sapiens, HCT-116, read-out: IC50(72 h).

Structures are written as SMILES. Like-named read-outs stand apart in the source and are kept apart here.

As for `N.N.O=C([O-])C1(C(=O)[O-])CCC1.[Pt+2]` [carboplatin], the IC50 in [1] (setting [16]) amounted to 78700 nM; in assay [2] (setting [17]), 76000 nM; in [3] (read-out: IC50(72 h)), 176000 nM; in [4] (read-out: IC50(72 h)), 141000 nM. Besides, the “increase in IC50 (72 hr) compared to parental cells” value (shortened to “increase in IC50 (72 hr)”) in assay [3] and in [4] was around 2 fold each time.

Turning to `CCc1c2c(nc3ccc(O)cc13)-c1cc3c(c(=O)n1C2)COC(=O)[C@]3(O)CC` [SN-38], the IC50 in assay [1] (p53^−/− Parental, read-out: SN-38 IC50(72 h)) is 4.2 nM; in assay [2] (p53^+/+ Parental, read-out: SN-38 IC50(72 h)), 5.6 nM; in [5] (read-out: SN-38 IC50(72 h)), 40 nM; in [3] (read-out: SN-38 IC50(72 h)), 3.7 nM; in [4] (read-out: SN-38 IC50(72 h)), 3.3 nM; in assay [6] (read-out: SN-38 IC50(72 h)) it was 6.5 nM. The IC50 amounted to 3.6 nM in assay [7] (read-out: SN-38 IC50(72 h)) and 540 nM in assay [8] (read-out: SN-38 IC50(72 h)). Also, in assay [1] (setting [18]), the “IC50 (72 h) in parental p53^+/+ and p53^−/− cells compared” value is on record as “similar”. The “increase in IC50 (72 hr)” value was around 10 fold in [5] and around 100 fold in [8].

For the molecule `CCc1c2c(nc3ccc(OC(=O)N4CCC(N5CCCCC5)CC4)cc13)-c1cc3c(c(=O)n1C2)COC(=O)[C@]3(O)CC` [CPT-11, irinotecan], the PARP cleavage entry with p53^+/+ HCT116 cells (5 μM) and in the assay on p53^−/− HCT116 cells (5 μM) was “evident” in each case. The IC50 in [1] (Homo sapiens, HCT-116, HCT116 p53^−/− parental, read-out: IC50(72 h)) turned out to be 3100 nM; in assay [2] (Homo sapiens, HCT-116, HCT116 p53^+/+ parental, read-out: IC50(72 h)), 3200 nM; in [5] (setting [19]), 30300 nM; in assay [3] (setting [19]), 2900 nM; in assay [4] (setting [19]) it was 3500 nM; in assay [6] (setting [19]) it was 7200 nM. Also, the IC50 in assay [7] (setting [19]) is 2800 nM; in assay [8] (setting [19]), 200000 nM. Besides, in assay [1] (setting [18]), the “IC50 (72 h) in parental p53^+/+ and p53^−/− cells compared” value is recorded as “almost identical”. In addition, the cell cycle distribution result was “almost completely insensitive” in assay [9] (0.5 μM and 1 μM); “significant G2/M arrest and accumulation of polyploid cells” in assay [9] (5 μM); “no G2/M arrest was observed” in assay [10] (0.5 μM and 1 μM); “dramatic G2/M cell cycle arrest” in assay [11] (0.5 μM and 1 μM); “accumulation of cells in S-phase” in [12] (0.5 μM); “majority of cells were now arrested in G2/M” in assay [12] (1 μM). This molecule registered a degree of apoptosis in assay [9] (5 μM) of around 14%. In addition, the “apoptosis” value in [10] (5 μM, 72 hours) is “no apoptosis was observed”. Also, the “increase in IC50 (72 hr)” value in assay [5] was 10.0 fold; in [6] (p53^+/+ 5-FU-resistant vs p53^+/+ parental) it was around 2 fold; in assay [8], 65.0 fold. Besides, in assay [11] (5 μM, ~2% in control samples), the apoptotic cells is listed as around 35%. For the same molecule, the “drug-induced apoptosis in p53^−/− compared to p53^+/+ parental cells” value in assay [11] is “almost identical levels of apoptosis”. Besides, in assay [12] (5 μM), the “cells in the sub-G0/G1 apoptotic phase” value is reported as around 40%. Further, the “cross-resistance examined using flow cytometry” value in assay [13] is “not apparent”.

`N.N.[Cl][Pt][Cl]` [cisplatin]: the concentration for half-maximal inhibition (IC50) in assay [1] (setting [16]) is 5700 nM; in assay [2] (setting [17]), 5400 nM; in assay [3] (read-out: IC50(72 h)) it was 7300 nM; in assay [4] (read-out: IC50(72 h)), 6700 nM.

For `O=C1[O][Pt]2([NH][C@@H]3CCCC[C@H]3[NH]2)[O]C1=O` [oxaliplatin], the values for the PARP cleavage result with p53^+/+ HCT116 cells (1 μM) and in the assay on p53^−/− HCT116 cells (1 μM) were “observed” and “not”, respectively. Also, the IC50 in assay [1] (setting [16]) stood at 1700 nM; in [2] (setting [17]), 300 nM; in assay [5] (read-out: IC50(72 h)), 300 nM; in assay [3] (read-out: IC50(72 h)), 9400 nM; in assay [4] (read-out: IC50(72 h)) it was 17900 nM; in assay [6] (read-out: IC50(72 h)), 300 nM. Also, the IC50 is 1900 nM in [7] (read-out: IC50(72 h)) and 1700 nM in assay [8] (read-out: IC50(72 h)). In assay [1] (setting [18]), the “increase in IC50 (72 h) dose in p53^−/− compared to p53^+/+ cells” value is reported as 5.7 fold. Also, the cell cycle distribution result in assay [14] (0.5 μM and 1 μM) was “unaffected”; in assay [14] (5 μM) it was “majority of cells were arrested in S-phase”; in assay [11] (1 μM), “S-phase block and a moderate increase in the polyploid fraction”; in [11] (5 μM), “majority of cells were arrested in G2/M phase”; in assay [12] (0.5 μM), “majority of cells had arrested in G2/M-phase”; in assay [15] it was “no change in cell cycle distribution”. Moreover, the “induction of apoptosis compared to parental cells” value in assay [14] is “dramatically attenuated”. Further, the results for the “increase in IC50 (72 hr)” value in assay [3] and in [4] were 31.0 fold and 10.5 fold, respectively. In addition, the “drug-induced apoptosis in p53^−/− compared to p53^+/+ parental cells” value in [11] is given as “significantly attenuated”. The “proportion of apoptotic cells” value in assay [12] (1 μM and 5 μM, ~2% in control samples) is listed as 40-50%.

Usually IC50 stands for the concentration at which inhibition is half-maximal.

(Values after patent publication US20070270488A1, “Treatment and Assays” (The Queen's University of Belfast, priority 2004, published 2007).)
